Here are results for one molecule from ChEMBL document CHEMBL4665919, “Novel Tricyclic Pyroglutamide Derivatives as Potent RORγt Inverse Agonists Identified using a Virtual Screening Approach” (ACS Med Chem Lett, 2020).

As usually defined, the bioavailability is the share of a dose that reaches the circulation, judged against a reference dose that is usually intravenous. High values mean good availability, low ones poor availability. The term EC50 denotes the concentration at which the effect is half-maximal. A word on the half-life: it is how long it takes for the measured level to halve. Low readings indicate rapid decline, high ones slow decline. Broadly, the IC50 is the concentration at which inhibition is half-maximal. High values mean weaker potency in that assay, low ones greater potency in that assay. By AUC is commonly meant the area under the concentration-time curve, a measure of exposure. The term clearance denotes the rate of elimination divided by the concentration. One may read the Tmax as the time at which the peak concentration occurs. What is called Cmax is the highest concentration seen after dosing.

The nature of data set [1]: Oral bioavailability in BALB/c mouse at 4 mg/kg. The conditions noted are these: in vivo. The data set is classed as ADME, organism-based.
Another data set relates to HepG2. As to the kind of experiment: Cytotoxicity against human HepG2 cells assessed as reduction in cell viability.
Data set [2] concerns the target T1, Nuclear receptor subfamily 1 group I member 2 (Homo sapiens, UniProt O75469).
T1 sequence (O75469 whole entry): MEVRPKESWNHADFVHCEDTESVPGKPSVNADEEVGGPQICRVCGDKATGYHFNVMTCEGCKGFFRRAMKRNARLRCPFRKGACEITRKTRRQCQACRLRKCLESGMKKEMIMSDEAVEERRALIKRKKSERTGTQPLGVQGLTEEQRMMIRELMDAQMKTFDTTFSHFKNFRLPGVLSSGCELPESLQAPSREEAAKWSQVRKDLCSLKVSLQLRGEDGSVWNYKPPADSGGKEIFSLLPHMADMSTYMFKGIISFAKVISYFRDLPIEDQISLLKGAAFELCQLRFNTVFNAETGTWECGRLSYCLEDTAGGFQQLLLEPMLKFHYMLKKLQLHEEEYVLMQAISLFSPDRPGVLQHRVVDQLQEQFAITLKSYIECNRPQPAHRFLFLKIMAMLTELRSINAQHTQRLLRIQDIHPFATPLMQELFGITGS
The experiment in a line: Inverse agonist activity at PXR (unknown origin).

Data set [3] can be described thus: Half life in human liver microsomes. The data set is classed as ADME, Microsome. (In general: Liver microsomes are vesicles of endoplasmic reticulum, rich in cytochrome P450 enzymes.)
For data set [4], the target named is T2, Oxysterols receptor LXR-alpha (Homo sapiens, UniProt Q13133).
T2 sequence (Q13133 whole entry): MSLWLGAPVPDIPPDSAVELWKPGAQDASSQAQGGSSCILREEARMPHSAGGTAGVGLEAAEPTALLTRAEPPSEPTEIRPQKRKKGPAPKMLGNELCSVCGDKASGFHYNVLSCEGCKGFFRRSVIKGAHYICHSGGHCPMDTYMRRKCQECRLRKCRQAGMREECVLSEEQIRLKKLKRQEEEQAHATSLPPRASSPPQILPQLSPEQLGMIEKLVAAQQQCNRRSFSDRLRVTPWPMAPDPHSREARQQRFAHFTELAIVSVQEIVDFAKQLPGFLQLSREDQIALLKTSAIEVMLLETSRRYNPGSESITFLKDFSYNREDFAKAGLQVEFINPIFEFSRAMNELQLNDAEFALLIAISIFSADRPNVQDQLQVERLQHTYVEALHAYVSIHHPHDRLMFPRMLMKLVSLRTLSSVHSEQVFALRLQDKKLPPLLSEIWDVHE
As to the kind of experiment: Inverse agonist activity at LXRalpha (unknown origin).

Data set [5] concerns the target T3, Nuclear receptor ROR-alpha (Homo sapiens, UniProt P35398).
T3 sequence (P35398 whole entry): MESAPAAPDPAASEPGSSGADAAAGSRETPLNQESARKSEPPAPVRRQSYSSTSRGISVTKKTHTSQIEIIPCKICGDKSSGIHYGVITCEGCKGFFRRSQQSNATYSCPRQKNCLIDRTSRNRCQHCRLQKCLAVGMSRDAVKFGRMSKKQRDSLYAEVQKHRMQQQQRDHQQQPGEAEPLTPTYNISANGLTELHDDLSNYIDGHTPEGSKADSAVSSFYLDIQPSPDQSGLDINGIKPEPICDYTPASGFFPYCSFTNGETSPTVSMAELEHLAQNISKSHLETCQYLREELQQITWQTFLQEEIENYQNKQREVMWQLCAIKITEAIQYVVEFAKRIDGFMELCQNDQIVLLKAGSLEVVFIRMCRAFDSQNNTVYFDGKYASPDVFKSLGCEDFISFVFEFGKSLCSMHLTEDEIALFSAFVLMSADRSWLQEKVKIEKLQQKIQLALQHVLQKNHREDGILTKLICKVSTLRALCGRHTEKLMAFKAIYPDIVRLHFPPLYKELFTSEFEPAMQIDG
The experiment in a line: Inverse agonist activity at Gal4-fused RORalpha (unknown origin).

The target in a further data set is Cytochrome P450 2C19 (Homo sapiens, UniProt P33261). As to the kind of experiment: Inhibition of CYP2C19 (unknown origin). The data set is classed as ADME.
Chain of Cytochrome P450 2C19 (P33261 whole entry): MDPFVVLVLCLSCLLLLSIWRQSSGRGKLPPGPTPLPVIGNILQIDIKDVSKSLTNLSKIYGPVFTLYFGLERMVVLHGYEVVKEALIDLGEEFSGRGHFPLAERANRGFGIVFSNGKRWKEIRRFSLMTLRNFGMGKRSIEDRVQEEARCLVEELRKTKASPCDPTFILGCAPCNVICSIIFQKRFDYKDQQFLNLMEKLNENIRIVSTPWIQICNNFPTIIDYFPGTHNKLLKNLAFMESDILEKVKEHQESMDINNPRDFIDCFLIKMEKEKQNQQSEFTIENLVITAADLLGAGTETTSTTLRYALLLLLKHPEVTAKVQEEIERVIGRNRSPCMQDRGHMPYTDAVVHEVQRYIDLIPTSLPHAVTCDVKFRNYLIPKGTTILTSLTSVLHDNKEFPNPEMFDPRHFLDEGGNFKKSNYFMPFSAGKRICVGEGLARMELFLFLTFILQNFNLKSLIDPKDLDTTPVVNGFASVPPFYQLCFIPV
In data set [6] the target is T4, Oxysterols receptor LXR-beta (Homo sapiens, UniProt P55055).
T4 sequence (P55055 whole entry): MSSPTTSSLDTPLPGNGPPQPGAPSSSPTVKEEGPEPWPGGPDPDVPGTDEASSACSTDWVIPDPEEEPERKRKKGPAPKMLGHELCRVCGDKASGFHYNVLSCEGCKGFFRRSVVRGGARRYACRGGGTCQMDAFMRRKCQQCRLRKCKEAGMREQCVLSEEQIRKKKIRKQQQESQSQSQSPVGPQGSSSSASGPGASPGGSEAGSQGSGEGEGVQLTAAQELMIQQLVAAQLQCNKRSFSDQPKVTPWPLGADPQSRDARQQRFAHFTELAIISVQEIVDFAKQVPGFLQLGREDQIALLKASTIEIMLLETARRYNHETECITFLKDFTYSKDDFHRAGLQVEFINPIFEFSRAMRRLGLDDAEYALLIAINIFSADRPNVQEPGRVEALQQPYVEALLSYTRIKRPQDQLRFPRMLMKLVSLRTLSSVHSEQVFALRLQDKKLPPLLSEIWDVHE
The experiment in a line: Inverse agonist activity at LXRbeta (unknown origin).

The nature of data set [7]: Drug concentration in BALB/c mouse at 4 mg/kg, po measured upto 24 hrs. The data set is classed as ADME, organism-based. Particulars: in vivo, read-out: Drug uptake.
The target of a further data set is Cytochrome P450 2C9 (Homo sapiens, UniProt P11712). The experiment in a line: Inhibition of CYP2C9 (unknown origin). The data set is classed as ADME.
Chain of Cytochrome P450 2C9 (P11712 whole entry): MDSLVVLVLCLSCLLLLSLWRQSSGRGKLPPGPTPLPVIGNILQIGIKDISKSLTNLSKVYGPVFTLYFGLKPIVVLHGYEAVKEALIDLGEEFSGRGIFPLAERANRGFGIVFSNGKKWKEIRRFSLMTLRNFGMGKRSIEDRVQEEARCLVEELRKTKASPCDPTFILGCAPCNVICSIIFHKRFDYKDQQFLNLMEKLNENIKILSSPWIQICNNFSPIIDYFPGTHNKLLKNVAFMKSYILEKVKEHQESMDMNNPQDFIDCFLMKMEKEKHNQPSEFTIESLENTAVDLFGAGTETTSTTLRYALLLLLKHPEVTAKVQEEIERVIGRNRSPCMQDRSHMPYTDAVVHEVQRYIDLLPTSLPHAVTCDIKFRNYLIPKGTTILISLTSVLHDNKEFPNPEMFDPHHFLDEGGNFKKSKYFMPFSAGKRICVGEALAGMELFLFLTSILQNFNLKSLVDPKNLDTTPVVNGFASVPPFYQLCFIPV
A short description of data set [8]: Protein binding in human. The data set is classed as ADME.
A short description of data set [9]: Permeability across apical to basolateral side in human Caco2 cells. The conditions noted are these: Caco-2, read-out: permeability. The data set is classed as ADME, cell-based.
Data set [10] is described as follows: AUC in BALB/c mouse at 4 mg/kg, po measured upto 72 hrs. The arrangement: route oral, dose 4 mg/kg, time <=72. Particulars: in vivo. The data set is classed as ADME, organism-based.
The nature of data set [11]: Clearance in BALB/c mouse at 2 mg/kg, iv. The data set is classed as ADME, organism-based. Particulars: in vivo.
Data set [12] is described as follows: Volume of distribution at steady state in BALB/c mouse at 2 mg/kg, iv. The data set is classed as ADME, organism-based. The conditions noted are these: in vivo, read-out: Vdss.
The nature of data set [13]: Tmax in BALB/c mouse at 4 mg/kg, po. The data set is classed as ADME, organism-based. Particulars: in vivo.
Data set [14] can be described thus: AUC in BALB/c mouse at 2 mg/kg, iv measured upto 72 hrs. The conditions noted are these: in vivo. Also noted: route intravenous, dose 2 mg/kg, time <=72. The data set is classed as ADME, organism-based.
A short description of data set [15]: Kinetic solubility of compound in acetate buffer at pH 6.5. The conditions noted are these: read-out: Kinetic_solubility. The data set is classed as physicochemical.
A short description of data set [16]: Cmax in BALB/c mouse at 4 mg/kg, po. The data set is classed as ADME, organism-based. Also noted: route oral, dose 4 mg/kg. Particulars: in vivo.
Data set [17] can be described thus: Protein binding in mouse. The data set is classed as ADME, organism-based. Particulars: in vivo.
Data set [18] can be described thus: Kinetic solubility of compound in acetate buffer at pH 4. The data set is classed as physicochemical. The conditions noted are these: read-out: Kinetic_solubility.

The structures appear in SMILES notation.

In turn, `CC(C)(O)CN1C(=O)[C@H](F)C[C@H]1C(=O)N1CC[C@@]2(S(=O)(=O)c3ccc(F)cc3)c3ccc(C(F)(C(F)(F)F)C(F)(F)F)cc3CC[C@@H]12` gave a bioavailability in data set [1] of 94%. Further, the EC50 in the data set on HepG2 is more than 100 µM; in data set [2] it was more than 50 µM; in data set [4], more than 7.5 µM; in data set [5], more than 10 µM; in [6] it was more than 7.5 µM. This molecule showed a half-life in data set [3] of more than 2 h. Moreover, the IC50 against Cytochrome P450 2C19 was more than 20 µM; at Cytochrome P450 2C9, 4.9 µM. Further, the concentration at 24 h in data set [7] is 620 nM. The values for the fraction unbound in [8] and in [17] were 0.025 and 1.3%, respectively. The Papp A→B in data set [9] was found to be 9.3 ×10⁻⁶ cm/s. Further, the AUC at 72 h in [10] was found to be 43.9 µM·h; in [14] it was 23 µM·h. In data set [11], this molecule returned a clearance of 2 mL/min/kg. Besides, in data set [12], the Vd is 2.7 L/kg. The Tmax in [13] was found to be 4.3 h. The solubility kinetic in data set [15] and in data set [18] was less than 1 µg/mL throughout. The Cmax in data set [16] was determined as 2200 nM.
